Source: patent publication US20050107386A1, “Methods of treating diseases and disorders by targeting multiple kinases” (priority 2003, published 2005)

Assays:
Settings in all cases: 3 μM; percent of control kinase activity
[1] = target: Blk(m) (Mus musculus, UniProt P16277); test: Blk(m) kinase assay; format: biochemical
Method: (§1) Six compounds (presumptive single agents) were tested against a panel of 50 kinases. The results are presented in Table 2; numbers for each kinase indicate the percent of control kinase activity in the presence of a 3μM concentration of the indicated agent.
(§2) Agents that target two or more different kinases are useful in the methods of the invention as described elsewhere herein. Such compounds may be identified, and their effect on certain kinases may be identified, using the assays briefly described below in Examples 4-83. Each of these assays was carried out as described in Davies et al., Biochem. J., 351:95-105 (2000). All assays were carried out at 10 μM ATP unless otherwise noted.
(§3) In a final reaction volume of 25 μl, Blk (m) (5-10 mU) is incubated with 50 mM Tris pH 7.5, 0.1 mM EGTA, 0.1 mM NaVanadate, 0.1% β-mercaptoethanol, 0.1 mg/ml poly(Glu, Tyr) 4:1, 10 mM MgAcetate and [γ-^33P-ATP] (specific activity approx. 500 cpm/pmol, concentration as required). The reaction is initiated by the addition of Mg^2+ [γ-^33P-ATP]. After incubation for 40 minutes at room temperature, the reaction is stopped by the addition of 5 μl of a 3% phosphoric acid solution. 10 μl of the reaction is then spotted onto a Filtermat A and washed three times for 5 minutes in 75 mM phosphoric acid and once in methanol prior to drying and scintillation counting.

[2] = system: CaMKII(r); test: CaMKII(r) kinase assay; format: biochemical, rat
Method: as §1, §2
as §3, with “μl, CaMKII (r)” for “μl, Blk (m)”, “with 40” for “with 50”, “mM Hepes” for “mM Tris”, “pH 7.4, 5” for “pH 7.5, 0.1”, “mM CaCl2, 30 μg/ml calmodulin, 30 μM […] (SEQ ID NO:11),” for “mM EGTA, 0.1 mM NaVanadate, 0.1% β-mercaptoethanol, 0.1 mg/ml poly(Glu, Tyr) 4:1,”, “a P30 filtermat” for “a Filtermat A”

[3] = target: Fyn(h) (Homo sapiens, UniProt P06241); test: Fyn(h) kinase assay; format: biochemical
Sequence of Fyn(h) (P06241 whole entry): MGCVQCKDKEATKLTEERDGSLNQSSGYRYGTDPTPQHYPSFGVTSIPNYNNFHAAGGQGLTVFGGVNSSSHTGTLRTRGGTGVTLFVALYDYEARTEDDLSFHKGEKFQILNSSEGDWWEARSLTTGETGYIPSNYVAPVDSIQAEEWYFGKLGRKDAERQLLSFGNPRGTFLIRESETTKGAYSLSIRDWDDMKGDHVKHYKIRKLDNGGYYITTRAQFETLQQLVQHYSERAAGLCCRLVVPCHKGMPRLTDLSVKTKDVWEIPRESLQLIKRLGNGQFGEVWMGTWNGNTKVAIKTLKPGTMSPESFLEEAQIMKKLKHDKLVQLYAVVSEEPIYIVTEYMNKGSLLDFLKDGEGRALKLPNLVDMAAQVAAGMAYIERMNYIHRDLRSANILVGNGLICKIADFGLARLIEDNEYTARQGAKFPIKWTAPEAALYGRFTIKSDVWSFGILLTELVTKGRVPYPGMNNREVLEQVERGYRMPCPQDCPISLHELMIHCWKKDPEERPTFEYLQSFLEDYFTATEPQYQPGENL
Method: as §1, §2
as §3, with “Fyn (h)” for “Blk (m)”, “250 μM […] (Cdc2 peptide; SEQ ID NO:7),” for “0.1% β-mercaptoethanol, 0.1 mg/ml poly(Glu, Tyr) 4:1,”, “P30 filtermat” for “Filtermat A”

[4] = target: Lck(h) (Homo sapiens, UniProt P06239); test: Lck(h) kinase assay; format: biochemical
Sequence of Lck(h) (P06239 whole entry): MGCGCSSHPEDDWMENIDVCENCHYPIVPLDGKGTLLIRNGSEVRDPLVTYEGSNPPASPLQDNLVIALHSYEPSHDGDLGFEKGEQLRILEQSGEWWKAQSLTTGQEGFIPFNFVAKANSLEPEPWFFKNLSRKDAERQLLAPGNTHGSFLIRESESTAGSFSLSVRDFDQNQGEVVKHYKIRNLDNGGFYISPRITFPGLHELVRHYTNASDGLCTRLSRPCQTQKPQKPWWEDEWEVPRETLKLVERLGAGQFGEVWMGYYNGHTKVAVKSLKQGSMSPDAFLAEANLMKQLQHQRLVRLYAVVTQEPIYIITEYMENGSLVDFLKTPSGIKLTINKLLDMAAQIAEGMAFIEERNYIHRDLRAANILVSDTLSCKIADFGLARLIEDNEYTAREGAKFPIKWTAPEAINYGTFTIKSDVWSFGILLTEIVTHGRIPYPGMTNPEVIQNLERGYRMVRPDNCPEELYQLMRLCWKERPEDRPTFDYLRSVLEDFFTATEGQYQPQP
Method: as §1, §2
as §3, with “Lck(h)” for “Blk (m)”, “250 μM […] (Cdc2 peptide; SEQ ID NO:7),” for “0.1% β-mercaptoethanol, 0.1 mg/ml poly(Glu, Tyr) 4:1,”, “P30 filtermat” for “Filtermat A”

[5] = target: PDGFRα(h) (Homo sapiens, UniProt P16234); test: PDGFRα(h) kinase assay; format: biochemical
Sequence of PDGFRα(h) (P16234 24-1089): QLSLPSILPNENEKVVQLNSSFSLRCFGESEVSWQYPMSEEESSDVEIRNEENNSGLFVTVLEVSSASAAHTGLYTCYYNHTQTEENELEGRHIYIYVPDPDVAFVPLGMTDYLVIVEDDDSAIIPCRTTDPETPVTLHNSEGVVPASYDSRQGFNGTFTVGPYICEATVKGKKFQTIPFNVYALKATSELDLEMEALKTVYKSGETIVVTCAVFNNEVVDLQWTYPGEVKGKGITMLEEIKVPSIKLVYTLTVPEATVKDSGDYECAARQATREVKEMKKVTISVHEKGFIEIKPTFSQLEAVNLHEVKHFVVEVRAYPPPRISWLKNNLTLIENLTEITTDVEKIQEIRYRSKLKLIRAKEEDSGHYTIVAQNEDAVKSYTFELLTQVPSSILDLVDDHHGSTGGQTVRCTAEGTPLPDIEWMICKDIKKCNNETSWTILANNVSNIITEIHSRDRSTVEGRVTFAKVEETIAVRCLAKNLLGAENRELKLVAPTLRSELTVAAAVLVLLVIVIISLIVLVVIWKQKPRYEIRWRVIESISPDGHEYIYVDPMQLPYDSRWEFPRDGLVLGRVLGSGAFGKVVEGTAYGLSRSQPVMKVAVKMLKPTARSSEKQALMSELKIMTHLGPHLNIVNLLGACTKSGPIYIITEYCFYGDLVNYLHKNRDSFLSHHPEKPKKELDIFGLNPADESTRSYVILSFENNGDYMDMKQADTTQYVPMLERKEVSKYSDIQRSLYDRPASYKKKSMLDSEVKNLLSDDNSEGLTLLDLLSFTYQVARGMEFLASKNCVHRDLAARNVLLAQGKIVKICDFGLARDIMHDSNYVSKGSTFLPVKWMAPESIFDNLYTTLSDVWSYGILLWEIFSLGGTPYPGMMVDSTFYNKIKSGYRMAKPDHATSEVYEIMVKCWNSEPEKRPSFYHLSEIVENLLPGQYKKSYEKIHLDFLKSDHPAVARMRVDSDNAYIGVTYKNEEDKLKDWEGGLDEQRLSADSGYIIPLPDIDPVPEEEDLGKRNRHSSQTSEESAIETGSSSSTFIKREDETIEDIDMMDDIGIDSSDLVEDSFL
Method: as §1, §2
as §3, with “μl, PDGFRα (h)” for “μl, Blk (m)”, “with 8” for “with 50”, “mM MOPS” for “mM Tris”, “pH 7.0, 0.2” for “pH 7.5, 0.1”, “mM EDTA,” for “mM EGTA, 0.1 mM NaVanadate, 0.1% β-mercaptoethanol,”, “4:1, 10 mM MnCl2,” for “4:1,”

[6] = target: PRK2(h) (Homo sapiens, UniProt Q16513); test: PRK2(h) kinase assay; format: biochemical
Sequence of PRK2(h) (Q16513 whole entry): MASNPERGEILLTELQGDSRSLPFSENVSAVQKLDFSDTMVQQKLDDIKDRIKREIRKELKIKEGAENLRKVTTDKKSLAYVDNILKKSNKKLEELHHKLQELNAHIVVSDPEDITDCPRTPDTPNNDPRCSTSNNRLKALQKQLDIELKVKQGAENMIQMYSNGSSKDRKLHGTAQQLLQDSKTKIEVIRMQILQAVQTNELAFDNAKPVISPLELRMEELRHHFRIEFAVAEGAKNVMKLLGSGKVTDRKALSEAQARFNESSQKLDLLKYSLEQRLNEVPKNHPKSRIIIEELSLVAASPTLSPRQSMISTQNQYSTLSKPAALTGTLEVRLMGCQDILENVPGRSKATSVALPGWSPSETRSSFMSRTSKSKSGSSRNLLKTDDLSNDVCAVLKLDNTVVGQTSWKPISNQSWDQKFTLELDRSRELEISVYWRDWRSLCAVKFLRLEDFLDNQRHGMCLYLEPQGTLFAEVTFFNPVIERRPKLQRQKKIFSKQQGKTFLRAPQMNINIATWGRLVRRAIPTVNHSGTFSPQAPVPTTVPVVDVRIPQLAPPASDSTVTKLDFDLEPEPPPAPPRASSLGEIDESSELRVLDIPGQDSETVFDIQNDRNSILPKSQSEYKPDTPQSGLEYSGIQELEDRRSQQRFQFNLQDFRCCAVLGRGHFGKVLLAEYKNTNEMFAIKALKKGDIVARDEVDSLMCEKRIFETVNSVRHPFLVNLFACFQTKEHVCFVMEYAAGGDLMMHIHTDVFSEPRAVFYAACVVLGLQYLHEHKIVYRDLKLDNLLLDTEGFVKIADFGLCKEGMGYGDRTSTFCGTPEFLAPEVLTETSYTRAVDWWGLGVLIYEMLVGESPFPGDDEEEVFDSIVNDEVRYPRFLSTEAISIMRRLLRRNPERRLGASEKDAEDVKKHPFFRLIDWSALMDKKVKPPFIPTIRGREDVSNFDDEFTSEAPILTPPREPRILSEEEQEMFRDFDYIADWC
Method: as §1, §2
as §3, with “PRK2 (h)” for “Blk (m)”, “EGTA,” for “EGTA, 0.1 mM NaVanadate,”, “30 μM […] (SEQ ID NO:12),” for “0.1 mg/ml poly(Glu, Tyr) 4:1,”, “P30 filtermat” for “Filtermat A”

[7] = target: Rsk3(h) (Homo sapiens, UniProt Q15349); test: Rsk3(h) kinase assay; format: biochemical
Sequence of Rsk3(h) (Q15349 whole entry): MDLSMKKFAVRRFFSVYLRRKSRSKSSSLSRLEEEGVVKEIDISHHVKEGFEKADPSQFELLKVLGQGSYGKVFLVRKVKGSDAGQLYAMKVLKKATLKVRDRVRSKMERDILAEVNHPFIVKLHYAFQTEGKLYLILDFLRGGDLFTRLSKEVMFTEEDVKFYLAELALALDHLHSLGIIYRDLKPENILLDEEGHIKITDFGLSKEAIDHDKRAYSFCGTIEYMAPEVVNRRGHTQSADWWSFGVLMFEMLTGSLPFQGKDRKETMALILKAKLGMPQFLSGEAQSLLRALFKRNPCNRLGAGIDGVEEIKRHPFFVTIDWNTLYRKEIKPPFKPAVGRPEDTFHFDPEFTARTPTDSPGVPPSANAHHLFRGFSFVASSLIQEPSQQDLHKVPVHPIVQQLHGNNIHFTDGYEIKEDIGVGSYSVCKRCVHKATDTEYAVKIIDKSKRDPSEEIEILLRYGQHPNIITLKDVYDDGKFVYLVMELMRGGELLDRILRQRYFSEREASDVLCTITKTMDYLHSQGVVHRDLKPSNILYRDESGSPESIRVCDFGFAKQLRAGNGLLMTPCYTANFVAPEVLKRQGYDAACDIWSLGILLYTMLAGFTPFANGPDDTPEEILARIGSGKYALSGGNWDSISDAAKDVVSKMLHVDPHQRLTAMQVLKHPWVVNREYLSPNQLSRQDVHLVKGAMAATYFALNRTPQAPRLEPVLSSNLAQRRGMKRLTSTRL
Method: as §1, §2
as §3, with “μl, Rsk3 (h)” for “μl, Blk (m)”, “with 8” for “with 50”, “mM MOPS” for “mM Tris”, “pH 7.0, 0.2” for “pH 7.5, 0.1”, “mM EDTA, 30 μM […] (SEQ ID NO:11),” for “mM EGTA, 0.1 mM NaVanadate, 0.1% β-mercaptoethanol, 0.1 mg/ml poly(Glu, Tyr) 4:1,”, “a P30 filtermat” for “a Filtermat A”

Sequence of Blk(m) (P16277 whole entry): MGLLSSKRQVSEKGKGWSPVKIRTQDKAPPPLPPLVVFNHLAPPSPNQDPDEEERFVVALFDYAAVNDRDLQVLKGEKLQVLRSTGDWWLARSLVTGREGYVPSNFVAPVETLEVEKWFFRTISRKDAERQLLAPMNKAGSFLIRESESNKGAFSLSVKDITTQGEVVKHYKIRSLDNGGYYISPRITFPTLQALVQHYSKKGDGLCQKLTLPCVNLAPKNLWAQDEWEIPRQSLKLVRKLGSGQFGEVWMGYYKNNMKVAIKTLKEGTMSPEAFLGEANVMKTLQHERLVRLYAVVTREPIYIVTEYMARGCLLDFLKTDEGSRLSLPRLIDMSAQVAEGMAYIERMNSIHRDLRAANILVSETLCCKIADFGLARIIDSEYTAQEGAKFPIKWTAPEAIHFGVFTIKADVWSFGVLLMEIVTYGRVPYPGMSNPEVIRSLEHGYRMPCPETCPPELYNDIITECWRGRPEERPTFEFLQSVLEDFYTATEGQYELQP

Inhibitory activity (% of control), Blk(m) [1]	Inhibitory activity (% of control), CaMKII(r) [2]	Inhibitory activity (% of control), Fyn(h) [3]	Inhibitory activity (% of control), Lck(h) [4]	Inhibitory activity (% of control), PDGFRα(h) [5]	Inhibitory activity (% of control), PRK2(h) [6]	Inhibitory activity (% of control), Rsk3(h) [7]	SMILES
11 % of control	26 % of control	4 % of control	5 % of control	71 % of control	4 % of control	5 % of control	CC(C)Cc1nc(-c2ccc3[nH]nc(-c4ccc5cc(OCCN6CCCC6)ccc5c4)c3c2)n[nH]1 [CC002, 5-(5-Isobutyl-1H-[1,2,4]Triazol-3-yl)-3-[6-(2-Pyrrolidin-1-yl-Ethoxy)-Naphthalen-2-yl]-1H-Indazole]
43 % of control	52 % of control	67 % of control	57 % of control	77 % of control	3 % of control	43 % of control	CC(C)(C)Cc1nc(-c2ccc3[nH]nc(-c4ccc5cc(OCc6ccccn6)ccc5c4)c3c2)n[nH]1 [CC004, 5-[5-(2,2-Dimethyl-propyl)-1H-[1,2,4]triazol-3-yl]-3-[6-(pyridine-2-ylmethoxy)-naphthalen-2-yl]-1H-indazole]
4 % of control	4 % of control	4 % of control	6 % of control	28 % of control	1 % of control	4 % of control	CCN1CCC[C@H]1COc1ccc2cc(-c3n[nH]c4ccc(-c5nc(CC(C)(C)C)n[nH]5)cc34)ccc2c1 [CC005, 2-[((2s)-1-ethylpyrrolidin-2-yl)methoxy]-6-{5-[3-(2,2-Dimethylpropyl)(1H-1,2,4,-triazol-5-yl)](1H-indazol-3-yl)}naphthalene]
60 % of control	82 % of control	65 % of control	43 % of control	86 % of control	24 % of control	39 % of control	Fc1ccc(-c2n[nH]c3ccc(-c4n[nH]c(C5CCCC5)n4)cc23)cc1 [CC006, 5-(5-Cyclopentyl-1H-[1,2,4]triazol-3-yl)-3-(4-fluoro-phenyl)-1H-indazole, reference compound]
76 % of control	68 % of control	66 % of control	56 % of control	108 % of control	68 % of control	38 % of control	O=C(NC1CCCC1)c1cccc(-c2n[nH]c3ccc(-c4nc[nH]n4)cc23)c1 [CC007, 3-(5-(1H-1,2,4-triazol-3-yl)(1H-indazol-3-yl))phenyl-N-cyclopentylcarboxamide, reference compound]

SMILES	Inhibitory activity (% of control), Blk(m) [1]	Inhibitory activity (% of control), CaMKII(r) [2]	Inhibitory activity (% of control), Fyn(h) [3]	Inhibitory activity (% of control), Lck(h) [4]	Inhibitory activity (% of control), PDGFRα(h) [5]	Inhibitory activity (% of control), PRK2(h) [6]	Inhibitory activity (% of control), Rsk3(h) [7]
COc1ccc2cc(-c3n[nH]c4ccc(-c5n[nH]c(CN6CCOCC6)n5)cc34)ccc2c1 [CC001, 3-(6-Methoxynaphthalen-2-yl)-5-(5-Morpholin-4-Ylmethyl-1H-[1,2,4]Triazol-3-yl)-1H-Indazole]	25 % of control	64 % of control	14 % of control	27 % of control	72 % of control	9 % of control	4 % of control
